US20010014324A1 (priority 1998, published 2001)

Legend:
Phytophthora infestans = type: in vivo; settings: potato; standard chemical inducer at 500 ppm
[1] = system: Puccinia recondita spp. tritici; experiment: Induced plant defense on wheat against Puccinia recondita spp. tritici (spray treatment); type: in vivo
Experimental: Ten seeds of wheat ([…]) of the variety “Arina” were grown in pots of 8 cm diameter in a mixture of ⅓ sand and ⅔ TKS1® soil at +25° C. in a 16/8 h light/dark regime. for 7 days till the primary leaf was fully expended.
Brown rust strain Puccinia recondita spp. tritici was propagated on the same variety of wheat. Fully infected, sporulating leaves were cut and the spores dusted onto water containing 0.05% of Tween 20®. The inoculum density was adjusted to 100,000 spores per ml.
Wheat plants with the secondary leaf just emerging were sprayed 7 and 3 days before inoculation. The entire plant was sprayed with PEN extract containing 1-2 g of glucose equivalents and 0.05% of Tween 20 to near run-off with an air driven spray pistol, model JATO 232 FR at 0.5 bar.
After the treatment plants were kept in the greenhouse till they were challenge inoculated. Control plants were mock treated with distilled water.
Treated or control plants were sprayed with approximately 3 ml of sporangia suspension in a ventilated inoculation chamber using an air driven spray pistol, model JATO 232 FR at 0.2 bar to generate a homogeneous layer of fine troplets on the whole seedling.
When the troplets had dried, plants were transferred to Plexiglas boxes and kept at +20° C. and a 60% relative humidity for 24 h in the dark then light was switched on and the plants kept under the same conditions for additional four days. Afterwards plants were returned to the greenhouse and kept at standard conditions as described above.
10 days after inoculation, when the fungus sporulated on control plants, the degree of infection was visually determined as % of infected leaf area on the inoculated leaves plants. The degree of protection was calculated with respect to the control plants according to the formula: [formula]

Row | SMILES | % infected leaf area (Phytophthora infestans) | % protection (Phytophthora infestans) | % infected ([1]; concentration 30 ppm) | % protection ([1]; concentration 30 ppm) | % infected ([1]; concentration 60 ppm) | % protection ([1]; concentration 60 ppm)
1 | CC(N)CC(=O)O (stereo not drawn) [BABA, beta-butyric acid] | 23% | 61% |  |  |  | 
2 | CSC(=O)c1cccc2nnsc12 [CGA 245 704] |  |  | 31.3% | 48.8% | 60% | 20%
